In patent US11033539B2, “Compounds of formulas (VII), (VIII), (IX), (XI), (XII), (XIII), and (XIV) as muscarinic receptor 4(M4) antagonists for treating neurological diseases” (Neurocrine Biosciences, Inc., priority 2015, dated 2021):
pKi: −log10 of the molar value.

target: human M4 receptor (Homo sapiens (Human), UniProt P08173); assay: Radioligand (tritiated N-methylscopolamine) binding assay, M4; details: Ki against the M4 receptor; membranes from CHO cells expressing human M4; tritiated N-methylscopolamine 1.5 nM; read-out: Ki
Method in brief: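 Membranes from CHO cells expressing the receptor were incubated with 1.5 nM radioligand and twelve compound concentrations (10 μM to […]) for 90 min at 37 °C in 50 mM HEPES, 100 mM NaCl, 5 mM MgCl2, 1 mM EDTA, pH 7.4. Bound radioligand was collected by filtration and counted, and Ki was derived from inhibition.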

Chain of human M4 receptor (P08173 whole entry): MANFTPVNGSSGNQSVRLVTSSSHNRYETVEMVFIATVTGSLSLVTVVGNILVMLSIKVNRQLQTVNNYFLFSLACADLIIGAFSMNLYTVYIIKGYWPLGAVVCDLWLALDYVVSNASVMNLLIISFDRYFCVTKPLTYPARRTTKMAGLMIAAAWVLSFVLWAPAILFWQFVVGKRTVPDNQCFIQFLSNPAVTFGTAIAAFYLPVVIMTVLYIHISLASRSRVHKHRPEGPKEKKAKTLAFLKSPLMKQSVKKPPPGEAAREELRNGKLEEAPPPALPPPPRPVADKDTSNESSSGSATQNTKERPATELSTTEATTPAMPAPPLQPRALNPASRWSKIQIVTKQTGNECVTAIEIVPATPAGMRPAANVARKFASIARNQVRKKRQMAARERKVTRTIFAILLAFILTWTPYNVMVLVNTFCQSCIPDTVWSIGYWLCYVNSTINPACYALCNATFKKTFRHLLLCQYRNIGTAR

SMILES	pKi
CC(=O)c1ccc(N2CCN(C(=O)NCCC3CCN(Cc4ccccc4)CC3)CC2)cc1 [8-36, 4-(4-acetylphenyl)-N-[2-(1-benzylpiperidin-4-yl)ethyl]piperazine-1-carboxamide]	6.00 to 7.00
O=C(NCCC1CCN(Cc2ccccc2)CC1)C1CCN(c2ccc(Cl)nc2)CC1 [10-27, N-[2-(1-benzylpiperidin-4-yl)ethyl]-1-(6-chloropyridin-3-yl)piperidine-4-carboxamide]	6.00 to 7.00
C[C@@H]1CN(c2cc(F)c(F)c(F)c2)CCN1C(=O)NCCC1CCN(Cc2cc(F)cc(F)c2)CC1 [6-23, (2R)-N-(2-{1-[(3,5-difluorophenyl)methyl]piperidin-4-yl}ethyl)-2-methyl-4-(3,4,5-trifluorophenyl)piperazine-1-carboxamide]	6.00 to 7.00
C[C@@H]1CN(c2ncc(C(F)(F)F)cn2)CCN1C(=O)NCCC1CCN(Cc2ccc(C#N)cc2)CC1 [6-41, (2R)-N-(2-{1-[(4-cyanophenyl)methyl]piperidin-4-yl}ethyl)-2-methyl-4-[5-(trifluoromethyl)pyrimidin-2-yl]piperazine-1-carboxamide]	7.00 to 8.00
N#Cc1cc(N2CCC(C(=O)NCCC3(O)CCN(Cc4ccccc4)CC3)CC2)ccc1F [9-44, N-[2-(1-benzyl-4-hydroxypiperidin-4-yl)ethyl]-1-(3-cyano-4-fluorophenyl)piperidine-4-carboxamide]	7.00 to 8.00
CN(CCC1CCN(Cc2ccccc2)CC1)C(=O)C1CCN(c2ccc(OC(F)(F)F)cc2)CC1 [9-34, N-[2-(1-benzylpiperidin-4-yl)ethyl]-N-methyl-1-[4-(trifluoromethoxy)phenyl]piperidine-4-carboxamide]	6.00 to 7.00
C[C@@H]1CN(c2cnc(C(F)(F)F)nc2)C[C@H](C)N1C(=O)NCCC1CCN(CCc2ccccc2)CC1 [6-56, (2R,6S)-2,6-dimethyl-N-{2-[1-(2-phenylethyl)piperidin-4-yl]ethyl}-4-[2-(trifluoromethyl)pyrimidin-5-yl]piperazine-1-carboxamide]	7.00 to 8.00
C[C@@H]1CN(c2ccccc2F)CCN1C(=O)NCCC1CCN(Cc2ccccc2)CC1 [4-49, (2R)-N-[2-(1-benzylpiperidin-4-yl)ethyl]-4-(2-fluorophenyl)-2-methylpiperazine-1-carboxamide]	6.00 to 7.00
CN(CCNC(=O)c1ccc(-c2ccc(OC(F)(F)F)cc2)cc1)[C@@H]1CCN(Cc2ccccc2)C1 [9-39, N-(2-{[(3R)-1-benzylpyrrolidin-3-yl](methyl)amino}ethyl)-4-[4-(trifluoromethoxy)phenyl]benzamide]	7.00 to 8.00
COc1cccc(N2CCN(C(=O)NCCC3CCN(Cc4ccccc4)CC3)[C@H](C)C2)n1 [4-51, (2R)-N-[2-(1-benzylpiperidin-4-yl)ethyl]-4-(6-methoxypyridin-2-yl)-2-methylpiperazine-1-carboxamide]	6.00 to 7.00
N#Cc1ccc(N2CCC(C(=O)NCCC3CCN(Cc4ccccc4)CC3)CC2)cc1 [9-29, N-[2-(1-benzylpiperidin-4-yl)ethyl]-1-(4-cyanophenyl)piperidine-4-carboxamide]	7.00 to 8.00
C[C@@H]1CN(c2cncc(C#N)c2)CCN1C(=O)NCCC1CCN(Cc2ccccc2)CC1 [4-23, (2R)-N-[2-(1-benzylpiperidin-4-yl)ethyl]-4-(5-cyanopyridin-3-yl)-2-methylpiperazine-1-carboxamide]	6.00 to 7.00
O=C(NCCC1CCN(Cc2ccccc2)CC1)N1CCC(c2ccccc2)CC1 [8-38, N-[2-(1-benzylpiperidin-4-yl)ethyl]-4-phenylpiperidine-1-carboxamide]	6.00 to 7.00
O=C(NCCC1CCN(Cc2ccccc2)CC1)N1CCC(c2cccc(C(F)(F)F)c2)CC1 [8-3, N-[2-(1-benzylpiperidin-4-yl)ethyl]-4-[3-(trifluoromethyl)phenyl]piperidine-1-carboxamide]	7.00 to 8.00
COc1cccc(N2CCC(C(=O)NCCC3CCN(Cc4ccccc4)CC3)CC2)c1 [10-53, N-[2-(1-benzylpiperidin-4-yl)ethyl]-1-(3-methoxyphenyl)piperidine-4-carboxamide]	6.00 to 7.00
COc1cccnc1N1CCN(C(=O)NCCC2CCN(Cc3ccccc3)CC2)[C@H](C)C1 [4-8, (2R)-N-[2-(1-benzylpiperidin-4-yl)ethyl]-4-(3-methoxypyridin-2-yl)-2-methylpiperazine-1-carboxamide]	6.00 to 7.00
C[C@@H]1CN(c2nc(C#N)cc(C#N)n2)CCN1C(=O)NCCC1CCN(Cc2ccccc2)CC1 [4-75, (2R)-N-[2-(1-benzylpiperidin-4-yl)ethyl]-4-(4,6-dicyanopyrimidin-2-yl)-2-methylpiperazine-1-carboxamide]	7.00 to 8.00
Cc1ccnc(N2CCC(C(=O)NCCC3CCN(Cc4ccccc4)CC3)CC2)c1 [9-52, N-[2-(1-benzylpiperidin-4-yl)ethyl]-1-(4-methylpyridin-2-yl)piperidine-4-carboxamide]	6.00 to 7.00
C[C@@H]1CN(c2cnc(C(F)(F)F)nc2)C[C@H](C)N1C(=O)NCCC1CCN(Cc2ccccc2F)CC1 [6-52, (2R,6S)-N-(2-{1-[(2-fluorophenyl)methyl]piperidin-4-yl}ethyl)-2,6-dimethyl-4-[2-(trifluoromethyl)pyrimidin-5-yl]piperazine-1-carboxamide]	7.00 to 8.00
N#Cc1cncc(N2CCC(C(=O)NCCC3CCN(Cc4ccccc4)CC3)CC2)c1 [10-15, N-[2-(1-benzylpiperidin-4-yl)ethyl]-1-(5-cyanopyridin-3-yl)piperidine-4-carboxamide]	6.00 to 7.00
O=C(NCCN[C@@H]1CCN(Cc2ccccc2)C1)C1CCN(c2cccc(OC(F)(F)F)c2)CC1 [9-54, N-(2-{[(3R)-1-benzylpyrrolidin-3-yl]amino}ethyl)-1-[3-(trifluoromethoxy)phenyl]piperidine-4-carboxamide]	6.00 to 7.00
O=C(NCCC1CCN(Cc2ccccc2)CC1)C1(O)CCN(c2cc(F)ccc2F)CC1 [10-64, N-[2-(1-benzylpiperidin-4-yl)ethyl]-1-(2,5-difluorophenyl)-4-hydroxypiperidine-4-carboxamide]	6.00 to 7.00
N#Cc1ccnc(N2CCC(C(=O)NCCC3CCN(Cc4ccccc4)CC3)CC2)c1 [10-66, N-[2-(1-benzylpiperidin-4-yl)ethyl]-1-(4-cyanopyridin-2-yl)piperidine-4-carboxamide]	6.00 to 7.00
O=C(NCCC1CCN(Cc2ccccc2)CC1)C1(O)CCN(c2cc(F)c(F)c(F)c2)CC1 [10-40, N-[2-(1-benzylpiperidin-4-yl)ethyl]-4-hydroxy-1-(3,4,5-trifluorophenyl)piperidine-4-carboxamide]	7.00 to 8.00

The remaining lines, values ahead:

pKi	SMILES
6.00 to 7.00	C[C@@H]1CN(c2cnc(C#N)nc2)C[C@H](C)N1C(=O)NCCC1CCN(Cc2ccccc2)CC1 [23-1, (2S,6R)-N-[2-(1-benzylpiperidin-4-yl)ethyl]-4-(2-cyanopyrimidin-5-yl)-2,6-dimethylpiperazine-1-carboxamide]
7.00 to 8.00	COC(=O)C(c1ccccc1)N1CCC(CCNC(=O)C2CCN(c3ccc(OC(F)(F)F)cc3)CC2)CC1 (stereo not drawn) [11-6, methyl 2-phenyl-2-{4-[2-({l-[4-(trifluoromethoxy)phenyl]piperidin-4-yl}formamido)ethyl]piperidin-1-yl}acetate]
7.00 to 8.00	Cc1c(C(=O)NCCC2CCN(Cc3ccccc3)CC2)cnc2cc(-c3ccc(C(F)(F)F)cc3)nn12 [17-8, N-[2-(1-benzylpiperidin-4-yl)ethyl]-7-methyl-2-[4-(trifluoromethyl)phenyl]pyrazolo[1,5-a]pyrimidine-6-carboxamide]
7.00 to 8.00	Cc1c(C(=O)NCCC2CCN(Cc3ccccc3)CC2)cnc2cc(-c3ccc(Cl)cc3)nn12 [17-4, N-[2-(1-benzylpiperidin-4-yl)ethyl]-2-(4-chlorophenyl)-7-methylpyrazolo[1,5-a]pyrimidine-6-carboxamide]
6.00 to 7.00	C[C@@H]1CN(c2ncc(C#N)cn2)C[C@H](C)N1C(=O)NCCC1CCN(CC23CC(C2)C3)CC1 [21-12]
6.00 to 7.00	C[C@@H]1CN(c2ncc(C#N)cn2)C[C@H](C)N1C(=O)NCCC1CCN(CC2(C)COC2)CC1 [21-10]
7.00 to 8.00	COc1ccccc1-c1cc2ncc(C(=O)NCCC3CCN(Cc4ccccc4)CC3)c(C)n2n1 [18-9]
7.00 to 8.00	O=C(OCCC1CCN(Cc2ccccc2)CC1)N1CCN(c2cc(F)c(F)c(F)c2)CC1 [12-12, 2-(1-benzylpiperidin-4-yl)ethyl 4-(3,4,5-trifluorophenyl)piperazine-1-carboxylate]
7.00 to 8.00	C[C@@H]1CN(c2cncnc2)CCN1C(=O)NCCC1CCN(Cc2ccccc2)CC1 [22-19]
6.00 to 7.00	CCN(C)C(=O)c1cc(C)nc(N2CCN(C(=O)NCCC3CCN(Cc4ccccc4)CC3)[C@H](C)C2)n1 [27-18]
6.00 to 7.00	Cc1c(C(=O)NCCC2CCN(Cc3ccccc3)CC2)cnc2cc(-c3ccccn3)nn12 [18-2, N-[2-(1-benzylpiperidin-4-yl)ethyl]-7-methyl-2-(pyridin-2-yl)pyrazolo[1,5-a]pyrimidine-6-carboxamide]
6.00 to 7.00	C[C@@H]1CN(c2ncc(C#N)cn2)C[C@H](C)N1C(=O)NCCC1CCN(CC2CCCCO2)CC1 (stereo partly shown) [21-9]
6.00 to 7.00	N#Cc1ccc(N2CCC(C(=O)NCCC3CCN(Cc4ccc(O)cc4)CC3)CC2)nc1 [11-17, 1-(5-cyanopyridin-2-yl)-N-(2-{1-[(4-hydroxyphenyl)methyl]piperidin-4-yl}ethyl)piperidine-4-carboxamide]
7.00 to 8.00	C[C@@H]1CN(c2ncc(C#N)cn2)C[C@H](C)N1C(=O)NCCC1CCN(CC2CCCCC2)CC1 [21-1, (2R,6S)-4-(5-cyanopyrimidin-2-yl)-N-{2-[1-(cyclohexylmethyl)piperidin-4-yl]ethyl}-2,6-dimethylpiperazine-1-carboxamide]
7.00 to 8.00	O=C(NCCC1CCN(Cc2cccnc2F)CC1)c1ccc(Oc2ccccc2)cc1 [11-2, N-(2-{1-[(2-fluoropyridin-3-yl)methyl]piperidin-4-yl}ethyl)-4-phenoxybenzamide]
6.00 to 7.00	C[C@@H]1CN(c2ncc(C#N)cn2)C[C@H](C)N1C(=O)NCCC1CCN(CC2CCC2)CC1 [21-5]
